Test results taken from patent publication US9359347B2, “Inhibitors of Akt/PKB with anti-tumor activity” (University of South Florida, priority 2007, dated 2016).

Key:
[1] = Tolerability observations in xenograft mice; type: in vivo; settings: 10 mg/kg/day, data not shown
Experimental: Tumor cells were harvested, resuspended in PBS, and injected subcutaneous (s.c.) into the right and left flanks (2×10^6 cells/flank) of 8-week-old female nude mice as reported previously (Sun et al. 1999). When tumors reached about 100-150 mm^3, animals were randomized and dosed intraperitoneal (i.p.) with vehicle or drug daily. Control animals received dimethylsulfoxide (DMSO) (20%) vehicle and treated animals were injected with API-1 (10 mg/kg/day) in 20% DMSO.
Because API-1 inhibits Akt signaling and induces apoptosis and cell growth arrest in cancer cells with elevated levels of Akt (FIGS. 4A-4G), it was reasoned that the growth of tumors with elevated levels of Akt should be more sensitive to API-1 than that of tumors with low levels of Akt in nude mice. To this end, Akt-overexpressing cells (OVCAR3 and PANC-1) were s.c. implanted into the left flank, and those cell lines that express low levels of Akt (OVCAR5 and COLO357) were s.c. implanted into the right flank of mice. When the tumors reached an average size of about 100-150 mm^3, the animals were randomized and treated i.p. with either vehicle or API-1 (10 mg/kg/day). As illustrated in FIGS. 5A-5J, OVCAR3 and PANC1 tumors treated with vehicle control continued to grow. API-1 inhibited OVCAR3 and PANC1 tumor growth by 70% and 50%, respectively (FIGS. 5C-5F and 5G-5J). In contrast, API-1 had little effect on the growth of OVCAR5 and COLO357 cells in nude mice (FIGS. 5A-5J). At dose 10 mg/kg/day, API-1 had no effects on blood glucose level, body weight, activity and food intake of mice (data not shown).

[2] = tested on: OVCA8; test: Cell proliferation MTT assay, OVCA8; type: cell-based, human; settings: OVCA8, 24 hours
Experimental: (§1) The blots were reprobed with anti-actin antibody (bottom panel). FIGS. 4B and 4C are cell proliferation assays in which indicated cell lines were treated with different doses of API-1 for 24 hours and then analyzed with MTT assay. FIGS. 4D-4G show an apoptosis analysis in which cells were treated with API-1 and stained with annexin V and PI and analyzed by FACScan.
(§2) In vitro kinase was performed as previously described (Jiang et al. 2000). Cell survival was assayed with MTT (Sigma). Apoptosis was detected with annexin V (BD Biosciences), which was performed according to manufacture's instruction. Recombinant Akt and PDK1 were purchased from Upstate Biotechnology Inc.
(§3) Akt is a major pro-growth and pro-survival pathway.

[3] = tested on: OVCAR3 tumors; test: Nude mouse tumor xenograft model, OVCAR3; type: in vivo, nude mice; settings: 10 mg/kg/day i.p.
Text: (§4) Tumor cells were subcutaneously injected into nude mice with low level of Akt cells on right side and elevated level of Akt cells on left side.

[4] = tested on: OVCAR3; test: Cell proliferation MTT assay, OVCAR3; type: cell-based, human; settings: OVCAR3, 24 hours
Experimental: as §1, §2, §3

[5] = tested on: Akt; test: Immunoblotting with anti-phospho-Akt-S473 antibody in OVCAR3 cells; type: cell-based, human; settings: 3 hours, read-out: IC50, phosphorylation level of Akt (phospho-Akt-S473)
Experimental: The cells were treated with API-1 at indicated concentration for 2 hours and subjected to immunoblotting analysis with anti-phospho-Akt-S473 antibodies (top panel).
OVCAR3 cells, which express elevated levels of phosphor-Akt, were treated with different doses of API-1 for 3 hours.

[6] = tested on: MDA-MB-435s cells; test: Cell proliferation MTT assay, MDA-MB-435s; type: cell-based, human; settings: 24 hours
Experimental: as §1, §2, §3

[7] = tested on: OVCAR5; test: Cell proliferation MTT assay, OVCAR5; type: cell-based, human; settings: OVCAR5, 24 hours
Experimental: as §1, §2, §3

[8] = tested on: MCF7; test: Cell proliferation MTT assay, MCF7; type: cell-based, human; settings: MCF7, 24 hours
Experimental: as §1, §2, §3

[9] = tested on: OVACAR3; test: Apoptosis analysis (annexin V and PI, FACScan), OVACAR3; type: cell-based, human
Experimental: as §1, §2, §3

[10] = tested on: MDA-MB-468; test: Apoptosis analysis (annexin V and PI, FACScan), MDA-MB-468; type: cell-based, human; settings: MDA-MB-468, annexin V and PI
Experimental: as §1, §2, §3

[11] = tested on: PKA; test: Immunoblotting of PKA phosphorylation in OVCAR3 cells; type: cell-based, human
Experimental: FIG. 2D is a graph showing the effect of API-1 on PKA, PKC and PDK kinase activity in living cells. OVCAR3 cells were treated with indicated concentration of API-1 for 1 hour. Cells were lysed and immunoblotted with indicated antibodies.

[12] = tested on: PANC1 tumors; test: Nude mouse tumor xenograft model, PANC1; type: in vivo, nude mice; settings: 10 mg/kg/day i.p.
Text: as §4

[13] = tested on: Akt; test: Immunoblotting of Akt phosphorylation in treated tumor specimens; type: in vivo, nude mice; settings: 10 mg/kg/day
Text: Tumor cells were subcutaneously injected into nude mice with low level of Akt cells on right side and elevated level of Akt cells on left side. […] API-1 treated and untreated tumor specimens were lysed and immunoblotted with indicated antibodies.

[14] = tested on: MDA-MB-468; test: Cell proliferation MTT assay, MDA-MB-468; type: cell-based, human; settings: MDA-MB-468, 24 hours
Experimental: as §1, §2, §3

[15] = target: T1, constitutively active Myc-AKT1-E17K (Homo sapiens, UniProt P31749, E17K); settings: Myc-AKT1-E17K transfected HEK 293 cells
[16] = target: T2, wild-type Myc-AKT1 (Homo sapiens, UniProt P31749); settings: wild-type Myc-AKT1 transfected HEK 293 cells
[17] = target: T2, wild-type Myc-AKT1; test: In vitro kinase assay of anti-Myc immunoprecipitates from wild-type Myc-AKT1 transfected HEK293 cells; settings: wild-type Myc-AKT1, HEK293, 30 min then EGF 15 min, Histone H2B substrate
Experimental: (§5) Nevertheless, we compared their capability of inhibiting Akt. HEK293 cells were transfected with wild-type Myc-AKT1 (FIGS. 7B and 7C) and constitutively active Myc-AKT1-E17K (FIGS. 7D and 7E). Following 36 h incubation, cells were serum starved overnight. […] Immunoprecipitation was carried out with anti-Myc antibody and the immunoprecipitates were subjected to in vitro kinase assay using Histone H2B as substrate (top). […] The experiments were repeated three times.

[18] = target: mTORC2 (Homo sapiens, UniProt P42345); test: Interference with mTORC2 complex (FIG. 3D)
[19] = target: T3, Akt (Homo sapiens, UniProt P31749); test: IGF-1 induced plasma membrane translocation of Akt in Myc-AKT1 transfected HeLa cells; type: cell-based; settings: Myc-AKT1, 30 min prior to IGF1 for 15 minutes
T3 construct: expressed in transfected cells; host or cells: HeLa
Experimental: HeLa cells were transfected on coverslips with Myc-AKT1, serum-starved overnight and then treated with (FIG. 6C) or without (FIG. 6B) AKT-SI1 for 30 min prior to stimulation with IGF1 for 15 minutes. Following fixation, cells were immuno-stained with the anti-Myc monoclonal antibody, followed by a FITC-conjugated secondary antibody to reveal the presence of the epitope-tagged protein in the cytosol or membrane (FIG. 6B). Cells without treatment with AKT-SI1 and IGF1 were used as control (FIG. 6A).

[20] = tested on: Akt downstream targets; test: Phosphorylation of Akt downstream targets (FIG. 3C); type: cell-based
[21] = target: T1, constitutively active Myc-AKT1-E17K; test: In vitro kinase assay of anti-Myc immunoprecipitates from Myc-AKT1-E17K transfected HEK293 cells; settings: HEK293, Histone H2B substrate
Experimental: as §5

[22] = target: mTORC1 (Homo sapiens, UniProt P42345); test: Interference with mTORC1 complex (FIG. 3D)

T2 sequence (P31749 whole entry): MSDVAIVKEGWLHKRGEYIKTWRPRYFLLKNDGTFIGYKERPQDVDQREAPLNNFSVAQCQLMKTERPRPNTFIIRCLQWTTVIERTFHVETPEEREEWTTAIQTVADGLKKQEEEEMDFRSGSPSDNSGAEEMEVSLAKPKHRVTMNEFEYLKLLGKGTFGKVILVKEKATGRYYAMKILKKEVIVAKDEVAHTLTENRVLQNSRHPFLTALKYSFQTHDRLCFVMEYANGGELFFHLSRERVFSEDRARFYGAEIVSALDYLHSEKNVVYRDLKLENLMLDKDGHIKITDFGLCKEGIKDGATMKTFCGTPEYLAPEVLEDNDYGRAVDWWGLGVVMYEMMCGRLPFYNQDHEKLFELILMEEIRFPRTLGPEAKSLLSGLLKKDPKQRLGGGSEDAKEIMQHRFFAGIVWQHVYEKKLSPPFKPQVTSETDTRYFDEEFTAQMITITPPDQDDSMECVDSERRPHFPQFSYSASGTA
T1 sequence (P31749 whole entry E17K): as the sequence (P31749 whole entry) above, with E17K counted along it
T3 sequence (P31749 whole entry): as the sequence (P31749 whole entry) above

## NC(=O)c1cn(C2OC(CO)C(O)C2O)c2ncnc(N)c2c1=O (stereo not shown) [API-1]
[1]
  activity: no effects
  blood glucose level: no effects
  body weight: no effects
  food intake: no effects
[2]
  inhibition of cell proliferation: 50-70%
[3]
  inhibition of tumor growth: 70%
[4]
  inhibition of cell proliferation: 50-70%
[5]
  IC50: ~800 nM
[6]
  inhibition of cell proliferation: 10-30%
[7]
  inhibition of cell proliferation: 10-30%
[8]
  inhibition of cell proliferation: 50-70%
[9]
  induction of apoptosis: 9 fold
[10]
  induction of apoptosis: 4.6 fold
[11]
  phosphorylation levels of PKA: not inhibited
[12]
  inhibition of tumor growth: 50%
[13]
  reduction of phosphorylation levels of Akt in treated tumor samples: about 70%
[14]
  inhibition of cell proliferation: 50-70%

## API-1
[15]
  phospho-Akt levels (S473): inhibit
[16]
  phospho-Akt levels (S473): inhibit
[17]
  inhibition of Akt kinase activity, compared with API-2/TCN: more potent than API-2/TCN
[18]
  interference with mTORC2 complex: did not interfere
[19]
  IGF-1 induced plasma membrane translocation of Akt: inhibits
[20]
  phosphorylation of Akt downstream targets: inhibited
[21]
  inhibition of Akt kinase activity, compared with API-2/TCN: more potent than API-2/TCN
[22]
  interference with mTORC1 complex: did not interfere
